This is an account of results in PMC7045321 (ACS Omega, 2020).

Assay [1] has as its system S. aureus. The experiment in a line: Time-kill kinetics in MHB with 10% serum. Type of assay: cell-based, Staphylococcus aureus. The following applies: 4 × MIC in MHB with 10% fetal bovine serum (FBS), 37 °C.
The test system of assay [2] is S. aureus. Nature of the assay: Time-kill kinetics in MHB. Type of assay: cell-based, Staphylococcus aureus. The following applies: 4 × MIC in MHB.

Turning to `CN[C@H](CC(C)C)C(=O)N[C@H]1C(=O)N[C@@H](CC(N)=O)C(=O)N[C@H]2C(=O)N[C@H]3C(=O)N[C@H](C(=O)N[C@H](C(=O)O)c4cc(O)cc(O)c4-c4cc3ccc4O)[C@H](O)c3ccc(c(Cl)c3)Oc3cc2cc(c3O[C@@H]2O[C@H](CO)[C@@H](O)[C@H](O)[C@H]2O[C@H]2C[C@](C)(N)[C@H](O)[C@H](C)O2)Oc2ccc(cc2Cl)[C@H]1O` [vancomycin], the “log reduction in cell viability after 3 h exposure” value in the assay with S. aureus [1] is given as 1 log. The “log reduction after 24 h” value in the assay with S. aureus [2] (37 °C) turned out to be 3 log. In addition, the “time to complete eradication of viable S. aureus cells” value in the assay on S. aureus [2] (~10^5 CFU mL^–1, 37 °C, followed for 24 h) is “not complete eradication”.
